We go through 1 compound from US20020198158A1, “Use of a cyclic ether for the preparation of medicaments affecting glucose tolerance” (priority 2000, published 2002).

The subject of one experiment is GLP-1. The experiment in a line: Plasma GLP-1 after gastric gavage. The experiment is classed as in vivo, mice. The conditions noted are these: P<0.05. The procedure: (§1) Non-fasted NMRI mice (Bomholdtgaard Breeding and Research Center, Ry, Denmark), weighing 20-25 g are used throughout the study. The animals are fed a standard pellet diet and tap water ad libitum.
(§2) The mice are fasted overnight and anesthetized as above. After induction of anesthesia, D-glucose (150 mg/mouse in 0.5 ml) is administered alone or together with 1,5AnFru (150 mg/mouse) through a gavage tube (outer diameter 1.2 mm) placed in the stomach. Blood samples are taken after 15, 30, 45, 60, 90 and 120 minutes and treated as above.
Plasma insulin is determined radioimmunochemically with the use of a guinea pig anti-rat insulin antibody, ^125I-labelled porcine insulin as tracer and rat insulin as standard (Linco Research, St Charles, Mo., USA). Free and bound radioactivity is separated by use of an anti-IgG (goat anti-guinea pig) antibody (Linco). The sensitivity of the assay is 12 pmol/l and the coefficiency of variation is less than 3% at both low and high levels. Plasma glucose is determined with the glucose oxidase method. Plasma GLP-1 is measured by a radioimmunoassay after extraction of plasma samples with ethanol. 400 μl 0.05 mol/l sodium phosphate buffer, pH 7.5, containing 6% albumin and 0.1 mol/l NaCl is added to 100 μl mouse plasma on ice and mixed well. […]

Experiment [1] concerns NMRI mice. Nature of the experiment: Intravenous glucose tolerance test. The conditions noted are these: for AUCinsulin (area under the insulin curve during the 50 min study period): anesthetized mice. The experiment is classed as in vivo. The method, then:
as §1
The mice are anesthetized with an intraperitoneal injection of midazolam (Dormicum^R, Hoffman-La-Roche, Basel, Switzerland, 0.4 mg/mouse) and a combination of fluanison (0.9 mg/mouse) and fentanyl (0.02 mg/mouse; Hypnorm^R, Janssen, Beerse, Belgium). Thereafter, a blood sample is taken from the retrobulbar, intraorbital, capillary plexus in heparinized tubes, whereafter D-glucose (British Drug Houses, Poole, UK; 1 g/kg) is injected rapidly intravenously either alone or together with 1,5AnFru (Danisco Ltd, Copenhagen, Denmark; 0.2 or 1 g/kg); in one series of experiments, 1,5AnFru is given alone (1 g/kg). The volume load is 10 μl/g body weight. New blood samples are taken after 1, 5, 10, 20, 30 and 50 minutes. In another set of experiments, 1,5AnFru is given by gastric gavage (0.2 g/kg) five minutes before the zero blood sample taken immediately before the intravenous injection of glucose as above. Blood samples are taken as above. Following immediate centrifugation at 4° C., plasma is separated and stored at −20° C. or until analysis.
(§3) Plasma insulin is determined radioimmunochemically with the use of a guinea pig anti-rat insulin antibody, ^125I-labelled porcine insulin as tracer and rat insulin as standard (Linco Research, St Charles, Mo., USA). Free and bound radioactivity is separated by use of an anti-IgG (goat anti-guinea pig) antibody (Linco). The sensitivity of the assay is 12 pmol/l and the coefficiency of variation is less than 3% at both low and high levels. Plasma glucose is determined with the glucose oxidase method. Plasma GLP-1 is measured by a radioimmunoassay after extraction of plasma samples with ethanol. 400 μl 0.05 mol/l sodium phosphate buffer, pH 7.5, containing 6% albumin and 0.1 mol/l NaCl is added to 100 μl mouse plasma on ice and mixed well. The mixture is then extracted with 70% ethanol (vol/vol, final dilution), and after vacuum centrifugation the residue is reconstituted in assay buffer and assayed as previously described (Ørskov et al., 1994). […] The sensitivity using this procedure is 5 pmol/l, and the intra-assay coefficient of variation is 10%.
(§4) Means±SEM are shown. Area under the curve for plasma insulin levels (AUCisulin) is calculated by the trapezoid rule. Statistical analyses are performed with the SPSS for Windows system. Statistical comparisons between groups are performed with Students t-test.

For experiment [2], the system named is NMRI mice. Nature of the experiment: Gastric glucose tolerance test. The experiment is classed as in vivo. The conditions noted are these: gastric gavage glucose 150 mg/mouse with 1,5AnFru 150 mg/mouse. The procedure:
as §1, §2, §3, §4

The next experiment deals with isolated mouse islets. Nature of the experiment: Insulin secretion in vitro from isolated islets. The experiment is classed as cell-based. The conditions noted are these: 60 min incubation. The method, then:
Pancreatic islets are isolated from four mice with the collagenase isolation technique. In brief, the pancreas is filled retrogradely through the pancreatic duct with 3 ml of Hank's Balanced Salt Solution (Sigma), supplemented with 0.3 mg/ml of Collagenase P (activity 1.86 U/mg; Boehringer Mannheim Gmbh, Mannheim, Germany). The pancreas is subsequently removed and incubated in the same solution for 20 min at 37° C. After rinsing, the islets are handpicked under a stereomicroscope and incubated overnight in RPMI 1640 medium supplemented with 10% fetal calf serum, 2.05 mmol/l L-glutamine, 2.5 μg/ml amphotericin B (GIBCO BRL, Paisley, Scotland), 100 lU/ml penicillin and 100 μg/ml streptomycin (Biol Ind, Beit Haemek, Israel) at 37° C. in humidified air equilibrated with 5% CO2. […]
Plasma insulin is determined radioimmunochemically with the use of a guinea pig anti-rat insulin antibody, ^125I-labelled porcine insulin as tracer and rat insulin as standard (Linco Research, St Charles, Mo., USA). Free and bound radioactivity is separated by use of an anti-IgG (goat anti-guinea pig) antibody (Linco). […] Plasma glucose is determined with the glucose oxidase method. Plasma GLP-1 is measured by a radioimmunoassay after extraction of plasma samples with ethanol. […]

Entries after “also recorded” stand apart in the source; their conditions may differ.

In the case of `O=C1CO[C@H](CO)[C@@H](O)[C@@H]1O` [1,5AnFru, 1,5-anhydro-D-fructose], in the experiment on GLP-1 (30 min after gastric gavage of glucose 150 mg/mouse with 1,5AnFru 150 mg/mouse), the “plasma GLP-1, 30 min value” came to 78.2 ± 8.6 pmol/L. In the experiment with GLP-1 (60 min after gastric gavage of glucose 150 mg/mouse with 1,5AnFru 150 mg/mouse), the “plasma GLP-1, 60 min value” was 28.8 ± 3.8 pmol/L. In addition, the “glucose-stimulated insulin secretion (insulin response to iv glucose)” value in the experiment on NMRI mice [1] (1,5AnFru 1 g/kg iv together with glucose 1 g/kg iv) was “inhibits”. Moreover, the “basal plasma levels of insulin or glucose” value in the experiment with NMRI mice [1] (1,5AnFru given alone iv, 1 g/kg) is given as “not affected”. Besides, the “AUCinsulin (area under the insulin curve during the 50 min study period)” value in the experiment on NMRI mice [1] (iv glucose 1 g/kg together with 1,5AnFru 0.2 g/kg iv) came out at 14.6±1.9 nmol/l×50 min; with NMRI mice [1] (iv glucose 1 g/kg together with 1,5AnFru 1 g/kg iv, P=0.021 vs glucose alone), 8.6±1.9 nmol/l×50 min. Besides, the “glucose elimination after intravenous glucose administration” value in the experiment on NMRI mice [1] (iv glucose 1 g/kg with 1,5AnFru iv, 50 min study period) was “not affected; also recorded: without affecting”. In addition, the “AUCinsulin during 60 min” value in the experiment on NMRI mice [2] (P=0.018 vs control) is 32.9 ± 2.6 nmol/L. In addition, the “AUCinsulin during the first 60 min after administration” value with NMRI mice [2] (P=0.018 vs controls) was 32.9±2.6 nmol/l in 60 min. Also, in the experiment on NMRI mice [2] (P=0.021 vs controls), the “60 min plasma glucose value” was 15.5 ± 1.6 mmol/L. Besides, the glucose-stimulated insulin secretion entry is reported as “inhibition of insulin secretion is observed; also recorded: inhibits” in the experiment with isolated mouse islets (16.7 mmol/l 1,5AnFru together with 11.1 mmol/l glucose) and “does not affect” in the experiment with isolated mouse islets (1,5AnFru at 11.1 mmol/l or below).
